One data set deals with E. coli Tol C. In words: Antibacterial assay (Test A), standard microtitration, MIC. As to conditions: for MIC: Escherichia coli, read-out: MIC E. coli Tol C; for MIC E. coli Tol C: Gram Negative Bacteria, strain Tol C. It counts as cell-based. The procedure:
(§1) The compounds of the present invention were tested against an assortment of Gram-negative and Gram-positive organisms using standard microtitration techniques (Cohen et. al., Antimicrob., 1985; 28: 766; Heifetz, et. al., Antimicrob., 1974; 6: 124).

For another data set, the system named is E. faecalis MGH-2. The description is as above. It counts as cell-based. To be noted: Gram Positive Bacteria, strain MGH-2; for MIC: Enterococcus faecalis, MGH2. The procedure: as §1
Another data set deals with H. influenzae HI3542. Described as above. As to conditions: Gram Negative Bacteria, strain HI3542; for MIC: Haemophilus influenzae. In kind it is cell-based. On the procedure: as §1
In another data set the test system is M. catarrhalis BC3534. The description is as above. It counts as cell-based. As to conditions: strain BC3534; for MIC: Moraxella catarrhalis, BC3534, Gram Negative Bacteria; for MIC M. catarrhalis BC3534: Gram Negative Bacteria. The procedure:
as §1

Another data set concerns S pyogenes C203. Described as above. In kind it is cell-based. As to conditions: Gram Positive Bacteria; strain C203. The procedure: as §1
The subject of a further data set is S. aureus UC-76. The data set is described as above. To be noted: Gram Positive Bacteria, strain UC-76; for MIC: Staphylococcus aureus, UC76. It counts as cell-based. The procedure:
as §1

In brackets after ≈: the same amount, converted by molar mass.

Take `CC(=O)NC[C@H]1CN(c2ccc3c(c2)OCCc2c(-c4ccncc4)n[nH]c2-3)C(=O)O1` [Example 22, (S)—N-[2-Oxo-3-(3-pyridin-4-yl-4,5-dihydro-1H-6-oxa-1,2-diaza-benzo[e]azulen-8-yl)-oxazolidin-5-ylmethyl]-acetamide]: the MIC in the data set with E. coli Tol C is more than 64 µg/mL; in the data set with E. faecalis MGH-2 it was 4 µg/mL (≈ 9.54 µM); with H. influenzae HI3542 it was 4 µg/mL (≈ 9.54 µM); in the data set with M. catarrhalis BC3534 it was more than 64 µg/mL; with S pyogenes C203, 1 µg/mL (≈ 2.38 µM); against S. aureus UC-76, 4 µg/mL (≈ 9.54 µM).
For the molecule `CC(=O)NC[C@H]1CN(c2ccc3c(c2)OCCc2cn[nH]c2-3)C(=O)O1` [Example 37, (S)—N-[3-(4,5-Dihydro-1H-6-oxa-1,2-diaza-benzo[e]azulen-8-yl)-2-oxo-oxazolidin-5-ylmethyl]-acetamide], the MIC with E. coli Tol C was more than 64 µg/mL; with E. faecalis MGH-2, 2 µg/mL (≈ 5.84 µM); with H. influenzae HI3542, 8 µg/mL (≈ 23.4 µM); against S pyogenes C203, 0.5 µg/mL (≈ 1.46 µM); against S. aureus UC-76 it was 2 µg/mL (≈ 5.84 µM). In the data set with M. catarrhalis BC3534, the “MIC M. catarrhalis BC3534” value worked out at 4 µg/mL (≈ 11.7 µM).
Consider `CC(=O)NC[C@H]1CN(c2ccc3c(c2)CCC(N)C(=O)N3)C(=O)O1` (stereo partly drawn), for which the melting point (as a rule, the temperature, or range, at which the solid turns liquid) was > 160 °C (dec.).
Turning to `CC(=O)NC[C@H]1CN(c2ccc3c(c2)OCCc2c(-c4ccc(F)cc4)n[nH]c2-3)C(=O)O1`, the results for the MIC against E. faecalis MGH-2, in the data set on S pyogenes C203 and against S. aureus UC-76 were 1 µg/mL (≈ 2.29 µM), 0.5 µg/mL (≈ 1.15 µM) and 1 µg/mL (≈ 2.29 µM), respectively.
The molecule `CC(=O)NC[C@H]1CN(c2ccc3c(c2)CCS(=O)(=O)C(=CN(C)C)C3=O)C(=O)O1` displayed a melting point of 261 to 263 °C.
`CC(=O)NC[C@H]1CN(c2ccc3c(c2)CCS(=O)(=O)c2cnoc2-3)C(=O)O1` showed a melting point of 211 to 212 °C.
Still for that read-out and setting: in the case of `CC(=O)NC[C@H]1CN(c2ccc3c(c2)CCSc2cnc(N)nc2-3)C(=O)O1` it was 190 to 191 °C (dec.).
As for “(S)—N-[2-Oxo-3-(2-phenethyl-4,5-dihydro-2H-6-oxa-1,2-diaza-benzo[e]azulen-8-yl)-oxazolidin-5-ylmethyl]-acetamide and (S)—N-[2-Oxo-3-(1-phenethyl-4,5-dihydro-1H-6-oxa-1,2-diaza-benzo[e]azulen-8-yl)-oxazolidin-5-ylmethyl]-acetamide [Example 42]”, the “MIC E. coli Tol C” value against E. coli Tol C is more than 64 µg/mL. The “MIC E. faecalis MGH-2” value with E. faecalis MGH-2 turned out to be 32 µg/mL. Also, the “MIC H. influenzae HI3542” value in the data set with H. influenzae HI3542 is more than 64 µg/mL. Further, the “MIC M. catarrhalis BC3534” value in the data set with M. catarrhalis BC3534 is more than 64 µg/mL. Moreover, the “MIC S pyogenes C203” value against S pyogenes C203 came out at 32 µg/mL. The “MIC S. aureus UC-76” value against S. aureus UC-76 was 32 µg/mL.
As to `CC(=O)NC[C@H]1CN(c2ccc3c(c2)OCCc2cn(C)nc2-3)C(=O)O1` [Example 39, (S)—N-[3-(2-Methyl4,5-dihydro-2H-6-oxa-1,2-diaza-benzo[e]azulen-8-yl)-2-oxo-oxazolidin-5-ylmethyl]-acetamide], the MIC in the data set on E. coli Tol C was more than 64 µg/mL; in the data set with E. faecalis MGH-2 it was 32 µg/mL (≈ 89.8 µM); with H. influenzae HI3542, more than 64 µg/mL; with M. catarrhalis BC3534, more than 64 µg/mL; with S pyogenes C203, 32 µg/mL (≈ 89.8 µM); in the data set with S. aureus UC-76, more than 64 µg/mL.
In the case of `CC(=O)NC[C@H]1CN(c2ccc3c(c2)OCCc2cn[nH]c2-3)C(=O)O1` [drawing 124], the “MIC E. coli Tol C” value with E. coli Tol C was more than 64 µg/mL. In addition, in the data set with H. influenzae HI3542, the “MIC H. influenzae HI3542” value was 8 µg/mL (≈ 23.4 µM). Besides, the “MIC M. catarrhalis BC3534” value against M. catarrhalis BC3534 amounted to 16 µg/mL (≈ 46.7 µM).
Turning to `CC(=O)NC[C@H]1CN(c2ccc3c(c2)CCS(=O)(=O)c2cnc(N)nc2-3)C(=O)O1`, the melting point was 211 to 213 °C (dec.).
Same read-out and setting: as for `CC(=O)NC[C@H]1CN(c2ccc3c(c2)CCNC(=O)N3)C(=O)O1`, the figure is 177 to 178 °C; as for `CC(=O)NC[C@H]1CN(c2ccc3c(c2)CCSc2cn[nH]c2-3)C(=O)O1`, 186 to 187 °C.
Consider “(S)—N-[3-(2-Benzyl-4,5-dihydro-2H-6-oxa-1,2-diaza-benzo[e]azulen-8-yl)-2-oxo-oxazolidin-5-ylmethyl]-acetamide and (S)—N-[3-(1-Benzyl-4,5-dihydro-1H-6-oxa-1,2-diaza-benzo[e]azulen-8-yl)-2-oxo-oxazolidin-5-ylmethyl]-acetamide [Example 41]”, for which the “MIC E. coli Tol C” value in the data set with E. coli Tol C is more than 64 µg/mL. Further, in the data set with E. faecalis MGH-2, the “MIC E. faecalis MGH-2” value is more than 64 µg/mL. Besides, the “MIC H. influenzae HI3542” value in the data set with H. influenzae HI3542 was more than 64 µg/mL. Further, the “MIC M. catarrhalis BC3534” value against M. catarrhalis BC3534 is more than 64 µg/mL. Besides, in the data set with S pyogenes C203, the “MIC S pyogenes C203” value stood at 32 µg/mL. Further, the “MIC S. aureus UC-76” value in the data set with S. aureus UC-76 was more than 64 µg/mL.
`CC(=O)NC[C@H]1CN(c2ccc3c(c2)CCS(=O)(=O)c2cn[nH]c2-3)C(=O)O1` yielded a melting point of 292 to 293 °C.
On to `CC(=O)NC[C@H]1CN(c2ccc3c(c2)OCCc2cnoc2-3)C(=O)O1` [Example 38, (S)—N-[3-(4,5-Dihydro-1,6-dioxa-2-aza-benzo[e]azulen-8-yl)-2-oxo-oxazolidin-5-ylmethyl]-acetamide], for which the MIC was more than 64 µg/mL in the data set on E. coli Tol C; 1 µg/mL (≈ 2.91 µM) against E. faecalis MGH-2; 4 µg/mL (≈ 11.7 µM) in the data set with H. influenzae HI3542; 0.5 µg/mL (≈ 1.46 µM) in the data set on S pyogenes C203; 1 µg/mL (≈ 2.91 µM) against S. aureus UC-76.
As for `CC(=O)NC[C@H]1CN(c2ccc3c(c2)CCSC(=CN(C)C)C3=O)C(=O)O1`, the melting point fell in the range of 221 to 222 °C.
Molecule `CC(=O)NC[C@H]1CN(c2ccc3c(c2)CCSCC3=O)C(=O)O1` registered a melting point of 232 to 233 °C.
For “(S)—N-[3-(2-Ethyl-4,5-dihydro-2H-6-oxa-1,2-diaza-benzo[e]azulen-8-yl)-2-oxo-oxazolidin-5-ylmethyl]-acetamide and (S)—N-[3-(1-Ethyl-4,5-dihydro-1H-6-oxa-1,2-diaza-benzo[e]azulen-8-yl)-2-oxo-oxazolidin-5-ylmethyl]-acetamide [Example 40]”, in the data set on E. coli Tol C, the “MIC E. coli Tol C” value was more than 64 µg/mL. The “MIC E. faecalis MGH-2” value against E. faecalis MGH-2 was more than 64 µg/mL. Moreover, the “MIC H. influenzae HI3542” value against H. influenzae HI3542 was more than 64 µg/mL. In addition, in the data set with M. catarrhalis BC3534, the “MIC M. catarrhalis BC3534” value is more than 64 µg/mL. Further, the “MIC S pyogenes C203” value against S pyogenes C203 stood at 32 µg/mL. For the same molecule, the “MIC S. aureus UC-76” value in the data set with S. aureus UC-76 is more than 64 µg/mL.

Values taken from US20050277630A1, “Antibacterial agents” (priority 2003, published 2005).
